The results in this text go back to patent US6440406B1, “Attractant for monitoring and control of adult scarabs” (The United States of America as represented by the …, priority 1997, dated 2002).

Format in all cases: in vivo
One experiment has as its system Cotinis nitida. Nature of the experiment: Field trap capture, College Station, TX. To be noted: number of incidents over the study where more than one target insect was trapped (male and female, 4 repetitions). On the procedure:
(§1) The mixture of all five volatile components, prepared as described in Lopez et al. (U.S. patent application Ser. No. 09/166,655, filed Oct. 5, 1998) was evaluated as an attractant for scarabs. Evaluations using the mixture in traps were conducted at various sites at Dallas, Tex., adjacent to corn or cotton fields in an agricultural area SW of College Station, Tex., and in different habitats at various locations in Mexico. The primary trap used was the Trece Catch Can with a yellow top and a green catch container obtained from Trece, Inc., Salinas, Calif. At College Station only, wire cone traps originally designed to capture noctuid moths (Hartstack et al., Jour. Econ. Entomol., 72:319-322, 1979) were also used in the evaluations. The traps were operated about 1 meter above ground level and were spaced at different distances based on the amount of space available in which to conduct the evaluations. Treatments were assigned to traps in trap lines either randomly or rotated every time the traps were checked to minimize trap location effects. Attractants for evaluation were dispensed primarily from sintered polyethylene to which the attractant was added until saturated. The sintered polyethylene was placed in various plastic containers to facilitate placing on the traps for evaluation. At College Station only, cotton dental wicks were used to dispense the attractants for evaluation by applying the attractants mixed with methylene chloride as a solvent. Traps were checked as appropriate based on the number of numbers of scarabs trapped.
(§2) The volatile components were evaluated individually and in combination for efficacy for capturing scarabs. The evaluations were conducted as described in Example 1 near College Station, Tex., and Dallas, Tex., except that the volatile components were assayed individually as well.
(§3) In the College Station, Tex., data, the numbers represent the frequencies or number of incidents, over the course of the study, where more than one target insect was trapped (male and female, 4 repetitions). The Dallas, Tex., data represents the numbers of males/females captured. Abbreviations for the active agents tested are as follows: Mix M=five component mixture as described in Example 1, MMB=methyl-2-methoxybenzoate, MS=methyl salicylate, PA=phenylacetaldehyde, PE=2-phenylethanol, PEG=Japanese Beetle Lure, and SL=limonene.

The next experiment concerns Euphoria sedpulcralis. Nature of the experiment: Field trap capture, College Station, TX. To be noted: number of incidents over the study where more than one target insect was trapped (male and female, 4 repetitions). How it is done: as §1, §2, §3
A further experiment has as its system Phyllophaga congrua. Kind of experiment: Field trap capture, Dallas, TX. To be noted: baited traps. How it is done: as §1, §2, §3
For another experiment, the system named is Phyllophaga crassissima. Nature of the experiment: Field trap capture, Dallas, TX. To be noted: baited traps. On the procedure: as §1, §2, §3
A further experiment has as its system Phyllophaga crinita. Nature of the experiment: Field trap capture, Dallas, TX. To be noted: baited traps. On the procedure: as §1, §2, §3

The structures appear in SMILES notation.

Consider `CC=Cc1ccc(OC)cc1` [Anethol, reference compound], for which the figures for the “Frequencies of trapping > 1 beetle” value in the experiment with Cotinis nitida and in the experiment with Euphoria sedpulcralis were 1 and 0, respectively. In addition, the no. females captured with Phyllophaga congrua is on record as 3; with Phyllophaga crassissima, 56; with Phyllophaga crinita, 0. In addition, the results for the no. males captured in the experiment with Phyllophaga congrua, with Phyllophaga crassissima and in the experiment with Phyllophaga crinita were 0, 79 and 14, respectively.

As to `COC(=O)c1ccccc1OC` [MMB, methyl-2-methoxybenzoate], the “Frequencies of trapping > 1 beetle” value in the experiment on Cotinis nitida came out at 1; with Euphoria sedpulcralis it was 0. The no. females captured with Phyllophaga congrua is recorded as 3; with Phyllophaga crassissima, 11; in the experiment on Phyllophaga crinita, 7. Besides, the no. males captured in the experiment on Phyllophaga congrua is 0; in the experiment with Phyllophaga crassissima, 16; in the experiment on Phyllophaga crinita, 8627.

For `COC(=O)c1ccccc1O` [MS, methyl salicylate], the “Frequencies of trapping > 1 beetle” value in the experiment with Cotinis nitida and in the experiment on Euphoria sedpulcralis was 0 in each case. Besides, the results for the no. females captured in the experiment on Phyllophaga congrua, in the experiment on Phyllophaga crassissima and with Phyllophaga crinita were 0, 10 and 0, respectively. Besides, the figures for the no. males captured with Phyllophaga congrua, in the experiment with Phyllophaga crassissima and in the experiment on Phyllophaga crinita were 4, 6 and 23, respectively.

In the case of `O=CCc1ccccc1` [PA, phenylacetaldehyde], the results for the “Frequencies of trapping > 1 beetle” value in the experiment on Cotinis nitida and in the experiment with Euphoria sedpulcralis were 13 and 1, respectively. Also, the no. females captured in the experiment on Phyllophaga congrua is 1; in the experiment on Phyllophaga crassissima it was 3; in the experiment with Phyllophaga crinita it was 1. For the same compound, the values for the no. males captured in the experiment on Phyllophaga congrua, in the experiment with Phyllophaga crassissima and with Phyllophaga crinita were 5, 9 and 16, respectively.

With `OCCc1ccccc1` [PE, 2-phenylethanol], the “Frequencies of trapping > 1 beetle” value stood at 2 in the experiment on Cotinis nitida and 0 in the experiment on Euphoria sedpulcralis. In addition, the no. females captured is 2 in the experiment on Phyllophaga congrua, 5 in the experiment on Phyllophaga crassissima and 1 with Phyllophaga crinita. The no. males captured is 5 with Phyllophaga congrua, 8 with Phyllophaga crassissima and 11 with Phyllophaga crinita.

In the case of `C=C(C)[C@H]1CC=C(C)CC1` [SL, limonene], the “Frequencies of trapping > 1 beetle” value in the experiment with Cotinis nitida and with Euphoria sedpulcralis was 0 each time. The no. females captured with Phyllophaga congrua came out at 2; with Phyllophaga crassissima it was 3; in the experiment on Phyllophaga crinita, 3. In addition, the no. males captured was found to be 1 in the experiment with Phyllophaga congrua, 4 with Phyllophaga crassissima and 32 in the experiment on Phyllophaga crinita.
